Measurements taken from US20120190687A1, “Pyrazinylpyrazoles” (Bayer CropScience Ag, priority 2009, published 2012).

Assays:
[1] = logP by reversed-phase HPLC (EEC Directive 79/831 Annex V.A8); type: physicochemical
From the text: [table] The calibration is effected with unbranched alkan-2-ones (having 3 to 16 carbon atoms) with known log P values (log P values determined on the basis of the retention times by linear interpolation between two successive alkanones).

Phaedon cochleariae = test: Phaedon test (PHAECO spray treatment); type: in vivo; settings: 500 g/ha, Chinese cabbage discs, after 7 days
Procedure: Phaedon Test ([…] Spray Treatment) Solvent: 78.0 parts by weight of acetone • • 1.5 parts by weight of dimethylformamide Emulsifier: 0.5 part by weight of alkylaryl polyglycol ether To prepare an appropriate active ingredient preparation, 1 part by weight of active ingredient is mixed with the stated amounts of solvent and emulsifier, and the concentrate is diluted with emulsifier-containing water to the desired concentration. Discs of Chinese cabbage (Brassica pekinensis) are sprayed with an active ingredient preparation of the desired concentration and, after drying, populated with larvae of the mustard beetle (Phaedon cochleariae). After 7 days, the efficacy in % is determined. 100% means that all beetle larvae have been killed; 0% means that none of the beetle larvae have been killed.

Tetranychus urticae = test: Tetranychus test, OP-resistant (TETRUR spray treatment); type: in vivo; settings: bean leaf discs, after 6 days
Procedure: Tetranychus Test, OP-resistant (TETRUR Spray Treatment)
Solvent: 78.0 parts by weight of acetone • • 1.5 parts by weight of dimethylformamide
Emulsifier: 0.5 part by weight of alkylaryl polyglycol ether
To prepare an appropriate active ingredient preparation, 1 part by weight of active ingredient is mixed with the stated amounts of solvent and emulsifier, and the concentrate is diluted with emulsifier-containing water to the desired concentration. Discs of bean leaves (Phaseolus vulgaris) infested by all stages of the red spider mite (Tetranychus urticae) are sprayed with an active ingredient preparation of the desired concentration. After 6 days, the efficacy in % is determined. 100% means that all spider mites have been killed; 0% means that none of the spider mites have been killed.

Spodoptera frugiperda = Spodoptera frugiperda test (SPODFR spray treatment); type: in vivo; settings: 500 g/ha, maize leaf discs, after 7 days
Procedure: Spodoptera frugiperda Test (SPODFR Spray Treatment) Solvent: 78.0 parts by weight of acetone • • 1.5 parts by weight of dimethylformamide Emulsifier: 0.5 part by weight of alkylaryl polyglycol ether To prepare an appropriate active ingredient preparation, 1 part by weight of active ingredient is mixed with the stated amounts of solvent and emulsifier, and the concentrate is diluted with emulsifier-containing water to the desired concentration. Discs of maize leaves (Zea mays) are sprayed with an active ingredient preparation of the desired concentration and, after drying, populated with caterpillars of the armyworm (Spodoptera frugiperda). After 7 days, the efficacy in % is determined. 100% means that all caterpillars have been killed; 0% means that none of the caterpillars have been killed.

[2] = * LC-MS, acidic range, pH 2.7, 0.1% aqueous formic acid / acetonitrile
[3] = ** acidic range, pH 2.3, 0.1% aqueous phosphoric acid / acetonitrile

Row | SMILES | log P [1, 2] | efficacy (Phaedon cochleariae) [%] | other results
1 | Nc1c(-c2ccc(Cl)cc2)c(C(F)(F)F)nn1-c1nccnc1Cl [Ex. 7] | 3.59* |  | 
2 | CC(C)Oc1nccnc1-n1nc(C(F)(F)F)c(-c2cc(Cl)cc(C(F)(F)F)c2)c1N [Ex. 13] | 4.84* | 83 | 
3 | Nc1c(-c2cc(Cl)cc(C(F)(F)F)c2)c(C(F)(F)F)nn1-c1cncc(Cl)n1 [Ex. 19] | 5.26* |  | 
4 | Cc1nccnc1-n1nc(C(F)(F)F)c(-c2cc(Cl)cc(C(F)(F)F)c2)c1N [Ex. 23] | 4.32* | 100 | efficacy (Tetranychus urticae; 500 g/ha): 100%
5 | Cc1cnc(C)c(-n2nc(C(F)(F)F)c(-c3cc(Cl)cc(C(F)(F)F)c3)c2N)n1 [Ex. 24] | 4.56* |  | 
6 | N#Cc1nccnc1-n1nc(C(F)(F)F)c(-c2cc(Cl)cc(C(F)(F)F)c2)c1N [Ex. 27] | 3.93* | 100 | 
7 | Nc1c(-c2cc(Cl)cc(C(F)(F)F)c2)c(C(F)(F)F)nn1-c1nccnc1-n1cccn1 [Ex. 31] | 3.94* |  | 
8 | COc1nccnc1-n1nc(C(F)(F)F)c(-c2cc(Cl)cc(C(F)(F)F)c2)c1N(Cc1ccccc1)Cc1ccccc1 [Ex. 32] | 6.67* |  | 
9 | CCOc1nccnc1-n1nc(C(F)(F)F)c(-c2cc(Cl)cc(C(F)(F)F)c2)c1N(Cc1ccccc1)Cc1ccccc1 [Ex. 34] | 7* |  | 
10 | CCOc1nccnc1-n1nc(C(F)(F)F)c(-c2cc(Cl)cc(C(F)(F)F)c2)c1N(Cc1ccc(Cl)cc1)Cc1ccc(Cl)cc1 [Ex. 36] |  |  | log P [1, 3]: 7.36**
11 | CCOc1nccnc1-n1nc(C(F)(F)F)c(-c2cc(Cl)cc(C(F)(F)F)c2)c1NCc1ccc(Cl)cc1 [Ex. 37] | 5.84* |  | 
12 | COc1nccnc1-n1nc(C(F)(F)F)c(-c2cc(Cl)cc(C(F)(F)F)c2)c1NCc1ccc(Cl)cc1 [Ex. 39] | 5.51* |  | 
13 | Nc1c(-c2cc(Cl)cc(C(F)(F)F)c2)c(C(F)(F)F)nn1-c1nccnc1-n1cc(F)cn1 [Ex. 45] | 4.24* |  | 
14 | COc1nccnc1-n1nc(C(F)(F)F)c(-c2cc(C(F)(F)F)cc(Cl)n2)c1N [Ex. 55] | 4.54* |  | 
15 | Nc1c(-c2cc(Cl)cc(Cl)c2)c(C(F)(F)F)nn1-c1nccnc1Cl [Ex. 56] | 4.16* |  | 
16 | COc1nccnc1-n1nc(C(F)(F)F)c(-c2cc(Cl)c(Cl)c(C(F)(F)F)c2)c1N [Ex. 86] |  | 100 | log P [1, 3]: 4.47**; efficacy (Spodoptera frugiperda): 100%

Row | SMILES | log P [1, 2] | efficacy (Phaedon cochleariae) [%] | other results
17 | C=C(C)CNc1c(-c2cc(Cl)cc(C(F)(F)F)c2)c(C(F)(F)F)nn1-c1nccnc1OC [Ex. 96] |  |  | efficacy (Tetranychus urticae; 500 g/ha): 100%
18 | C#CCN(CC#C)c1c(-c2cc(Cl)cc(C(F)(F)F)c2)c(C(F)(F)F)nn1-c1nccnc1OC [Ex. 105] | 4.91* |  | 
19 | CNc1c(-c2cc(Cl)cc(C(F)(F)F)c2)c(C(F)(F)F)nn1-c1nccnc1OC [Ex. 106] | 4.51* |  | 
20 | COc1nccnc1-n1nc(C(F)(F)C(F)F)c(-c2cc(Cl)c(Cl)c(Cl)c2)c1N [Ex. 116] |  | 100 | log P [1, 3]: 4.37**; efficacy (Spodoptera frugiperda): 100%; efficacy (Tetranychus urticae; 500 g/ha): 90%
21 | COc1nccnc1-n1nc(C(F)(F)F)c(-c2ccc(N(C)C)c(Cl)c2)c1N [Ex. 122] | 3.19* | 100 | efficacy (Spodoptera frugiperda): 100%
22 | COc1nccnc1-n1nc(C(F)(F)F)c(-c2cc(Cl)c(N(C)C)c(C(F)(F)F)c2)c1N [Ex. 123] | 4.72* | 100 | efficacy (Spodoptera frugiperda): 100%; efficacy (Tetranychus urticae; 500 g/ha): 80%
23 | COc1cc(-c2c(C(F)(F)F)nn(-c3nccnc3OC)c2N)ccc1OCC(F)(F)F [Ex. 125] | 3.07* | 100 | efficacy (Tetranychus urticae; 500 g/ha): 90%
24 | COc1cc(-c2c(C(F)(F)F)nn(-c3nccnc3OC)c2N)cc(C(F)(F)F)c1OC(C)C [Ex. 126] | 4.28* |  | 
25 | Nc1c(-c2cc(Cl)cc(C(F)(F)F)c2)c(C(F)(F)F)nn1-c1nccnc1Br [Ex. 129] | 4.27* |  | 
26 | Nc1c(-c2cc(Cl)cc(C(F)(F)F)c2)c(C(F)(F)F)nn1-c1nccnc1C(F)(F)F [Ex. 130] | 4.57* | 100 | efficacy (Spodoptera frugiperda): 100%
27 | COc1cc(-c2c(C(F)(F)F)nn(-c3nccnc3OC)c2N)cc(Cl)c1OCC(F)(F)F [Ex. 134] | 3.88* | 100 | efficacy (Spodoptera frugiperda): 100%
28 | COc1nccnc1-n1nc(C(F)(F)F)c(-c2cc(F)c(Cl)cc2Cl)c1N [Ex. 166] | 3.66* | 100 | efficacy (Tetranychus urticae; 500 g/ha): 90%
29 | COc1nccnc1-n1nc(C(F)(F)F)c(-c2cc(SCC(F)(F)F)c(Cl)cc2Cl)c1N [Ex. 179] | 4.14* |  | 
30 | COc1nccnc1-n1nc(C(F)(F)F)c(-c2cc(Cl)c(Cl)c([S+]([O-])CC(F)(F)F)c2)c1N (stereo not shown) [Ex. 182] | 3.69* |  | 
31 | C=C(C)CN(CC(=C)C)c1c(-c2cc(Cl)cc(C(F)(F)F)c2)c(C(F)(F)F)nn1-c1nccnc1OC [compound 104] | 5.22* |  | 
32 | COc1nccnc1-n1nc(C(F)(F)F)c(-c2cc(Cl)cc(C(F)(F)F)c2)c1N(C)C [compound 107, 1-(3-methoxypyrazin-2-yl)-4-[3-chloro-5-(trifluoromethyl)phenyl]-3-(trifluoromethyl)-1H-pyrazole-5-dimethylamine] |  | 83 | chromatographic logP ([1]; reversed-phase HPLC column, * LC-MS, acidic range, pH 2.7, 0.1% aqueous formic acid / acetonitrile, read-out: log P): 5.11

More lines, main results first:

Row | log P [1, 2] | SMILES | efficacy (Phaedon cochleariae) [%] | other results
33 | 4.02* | Nc1c(-c2ccc(Cl)c(Cl)c2)c(C(F)(F)F)nn1-c1nccnc1Cl [Ex. 1] |  | log P [1, 3]: 3.99**;
34 | 4.28* | Nc1c(-c2cc(Cl)cc(C(F)(F)F)c2)c(C(F)(F)F)nn1-c1nccnc1Cl [Ex. 16] |  | 
35 | 4.28* | CN(C)c1nccnc1-n1nc(C(F)(F)F)c(-c2cc(Cl)cc(C(F)(F)F)c2)c1N [Ex. 25] |  | 
36 | 3.29* | C[S+]([O-])c1nccnc1-n1nc(C(F)(F)F)c(-c2cc(Cl)cc(C(F)(F)F)c2)c1N (stereo not shown) [Ex. 29] |  | 
37 | 3.54* | CS(=O)(=O)c1nccnc1-n1nc(C(F)(F)F)c(-c2cc(Cl)cc(C(F)(F)F)c2)c1N [Ex. 30] |  | 
38 | 5.62* | CCOc1nccnc1-n1nc(C(F)(F)F)c(-c2cc(Cl)cc(C(F)(F)F)c2)c1NCc1ccccc1 [Ex. 35] |  | efficacy (Tetranychus urticae; 500 g/ha): 90%
39 | 7.11* | COc1nccnc1-n1nc(C(F)(F)F)c(-c2cc(Cl)cc(C(F)(F)F)c2)c1N(Cc1ccc(Cl)cc1)Cc1ccc(Cl)cc1 [Ex. 38] |  | 
40 | 5.47* | CCOc1nccnc1-n1nc(C(F)(F)F)c(-c2cc(Cl)cc(C(F)(F)F)c2)c1NCc1ccc(OC)cc1 [Ex. 40] |  | 
41 | 6.25* | COc1ccc(CN(Cc2ccc(OC)cc2)c2c(-c3cc(Cl)cc(C(F)(F)F)c3)c(C(F)(F)F)nn2-c2nccnc2OC)cc1 [Ex. 42] |  | 
42 | 6.57* | CCOc1nccnc1-n1nc(C(F)(F)F)c(-c2cc(Cl)cc(C(F)(F)F)c2)c1N(Cc1ccc(OC)cc1)Cc1ccc(OC)cc1 [Ex. 43] | 100 | efficacy (Spodoptera frugiperda): 100%
43 | 2.76* | Nc1c(-c2cc(Cl)cc(C(F)(F)F)c2)c(C(F)(F)F)nn1-c1nccnc1-n1ccnc1 [Ex. 44] | 100 | efficacy (Spodoptera frugiperda): 100%
44 | 3.18* | COc1nccnc1-n1nc(C(F)(F)C(F)F)c(-c2cc(Cl)c3c(c2)OCO3)c1N [Ex. 65] | 100 | efficacy (Spodoptera frugiperda): 100%; efficacy (Tetranychus urticae; 500 g/ha): 90%
45 | 3.22* | COc1nccnc1-n1nc(C(F)(F)C(F)F)c(-c2cc(Cl)c3c(c2)CCO3)c1N [Ex. 66] | 100 | efficacy (Spodoptera frugiperda): 100%; efficacy (Tetranychus urticae; 500 g/ha): 90%
46 | 4.46* | COc1nccnc1-n1nc(C(F)(F)F)c(-c2cc(Cl)c(N(C)C)c(Cl)c2)c1N [Ex. 121] | 100 | efficacy (Spodoptera frugiperda): 100%; efficacy (Tetranychus urticae; 100 g/ha): 80%
47 | 3.68* | CCOc1cc(-c2c(C(F)(F)F)nn(-c3nccnc3OC)c2N)ccc1OCC(F)(F)F [Ex. 127] | 100 | efficacy (Tetranychus urticae; 500 g/ha): 90%
48 | 4.3* | CCOc1cc(-c2c(C(F)(F)F)nn(-c3nccnc3OC)c2N)cc(Br)c1OCC(F)(F)F [Ex. 140] | 100 | efficacy (Spodoptera frugiperda): 100%
49 | 3.68* | COc1nccnc1-n1nc(C(F)(F)F)c(-c2ccc3c(c2)CCC(C)(C)O3)c1N [Ex. 145] | 100 | 
50 | 4.14* | COc1nccnc1-n1nc(C(F)(F)F)c(-c2ccc(Cl)c(SC)c2Cl)c1N [Ex. 165] |  | 
51 | 4.43* | COc1nccnc1-n1nc(C(F)(F)F)c(-c2cc(Cl)c(Cl)c(SCC(F)(F)F)c2)c1N [Ex. 180] |  | 
